Measurements: ChEMBL document CHEMBL4665898, “Semisynthetic Analogs of the Antibiotic Fidaxomicin-Design, Synthesis, and Biological Evaluation” (ACS Med Chem Lett, 2020)

Tested on: Mycobacterium tuberculosis
Assay: Antimycobacterial activity against multi-drug resistant Mycobacterium tuberculosis after 5 days in presence of 7H9 medium by CLSI-based broth microdilution method
Type: functional
Conditions: 120 h, time 5 day

For `CCc1c(Cl)c(O)c(Cl)c(O)c1C(=O)O[C@@H]1[C@@H](O)[C@@H](OC)[C@@H](OC/C2=C\C=C\C[C@H](O)/C(C)=C/[C@H](CC)[C@@H](O[C@@H]3OC(C)(C)[C@@H](OC(=O)C(C)C)[C@H](O)[C@@H]3O)/C(C)=C/C(C)=C/C[C@@H]([C@@H](C)O)OC2=O)O[C@H]1C`, the MIC was < 8 ng/mL.
